Measurements taken from patent US20210353579A1, “HIGH PENETRATION COMPOSITIONS AND USES THEREOF” (Techfields Pharma Co., Ltd., priority 2006, published 2021).
Where a name gives a salt, the structure may show the parent alone.

Experiments:
[1] = tested on: rat; conditions: rats;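 note: acute toxicity in rats expressed as LD50, determined for both prodrugs and their parent compounds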
Procedure: The acute toxicity of the prodrug compounds and parent compounds are measured by LD50 of rat.

[2] = tested on: human skin tissue; conditions: pH 7.4
[3] = tested on: rats (SLAC/GK, type 2 diabetes); experiment: Blood glucose in type 2 diabetes rats, oral with food; format: in vivo, rat; conditions: for Blood glucose, Diabetic rats, Average: average second to fifth week, no fasting, equal to 20 mg/kg of NSAIAs every day for 5 weeks; for Blood glucose, Diabetic rats, Baseline: equal to 20 mg/kg of NSAIAs
Excerpt: (§1) 20% acetone solution of diethylaminoethyl acetylsalicylate.acetylsalicylic acid salt (P-1, in acetone); 4-acetamidophenyl salicylyldimethylaminobutyrate.HCl (P-6), diethylaminoethyl 5-(2,4-difluorophenyl) acetylsalicylate.5-(2,4-difluorophenyl) acetylsalicylic acid salt (P-8), diethylaminoethyl salicylsalicylate.AcOH (P-9), diethylaminoethyl salicylate.AcOH (P-10), diethylaminoethyl 5-acetamido-acetylsalicylate (P-58), diethylaminoethyl acetylsalicylsalicylate. acetylsalicylsalicylic acid salt (P-59), diethylaminoethyl acetylsalicylsalicylate. acetylsalicylsalicylsalicylic acid salt (P-60) (equal to of 20 mg/kg of NSAIAs) were mixed with food and were orally administered to the rats (SLAC/GK, type 2 diabetes, n=7) with food every day for 5 weeks. The blood glucose levels were measured once every 3 days at 3 pm (no fasting) from the second week to the fifth week. The blood lipid levels were measured at the end of the fifth week.

[4] = tested on: rats (SLAC/GK, type 2 diabetes); experiment: Blood glucose in type 2 diabetes rats, transdermal; format: in vivo, rat; conditions: diabetic rats (SLAC/GK); for Blood glucose, Average: average second to fifth week, no fasting, equal to 20 mg/kg of NSAIAs once per day for 5 weeks; for Blood glucose, Baseline: equal to 20 mg/kg of NSAIAs once per day
Excerpt: (§2) HPPs lower blood glucose level in rat models (SLAC/GK, type 2 diabetes, n=7). 50% acetone solution of diethylaminoethyl acetylsalicylate.acetylsalicylic acid salt (P-1, in acetone); 4-acetamidophenyl salicylyldimethylaminobutyrate.HCl (P-6), diethylaminoethyl 5-(2,4-difluorophenyl) acetylsalicylate.5-(2,4-difluorophenyl).acetylsalicylic acid salt (P-8), diethylaminoethyl salicylsalicylate.AcOH (P-9), diethylaminoethyl salicylate.AcOH (P-10), diethylaminoethyl 5-acetamido-acetylsalicylate (P-58), diethylaminoethyl acetylsalicylsalicylate.acetylsalicylsalicylic acid salt (P-59), diethylaminoethyl acetylsalicylsalicylate.acetylsalicylsalicylsalicylic acid salt (P-60) (equal to of 20 mg/kg of NSAIAs) are administered transdermally to the backs (about 1.5 cm^2) of rats (fur was shaved) once per day (at 8 am) for 5 weeks. The blood glucose levels are measured once every 3 days at 3 pm (no fasting) from the second week to the fifth week (Table 24). The blood lipid levels are measured at the end of the fifth week (Table 25).

[5] = Plasma levels after transdermal administration to hairless mice; format: in vivo; conditions: mouse, in vivo
Procedure: Tested compounds (20% solution or suspension in 1 mL isopropanol) are administered transdermally to the skin of intact hairless mice. The plasma levels of the parent compounds are determined by HPLC.

[6] = tested on: rats (SLAC/GK, type 2 diabetes); experiment: Blood lipid in type 2 diabetes rats, transdermal; format: in vivo, rat; conditions: for Cholesterol (HDL), Baseline / Cholesterol (total), Baseline / Triglycerides, Baseline: equal to 20 mg/kg of NSAIAs; for Cholesterol (HDL), Average / Cholesterol (total), Average / Triglycerides, Average: end of the fifth week, equal to 20 mg/kg of NSAIAs once per day
Excerpt: as §2

[7] = tested on: mice; experiment: Analgesic activity, D'Amour-Smith method (tail heat, pain threshold); format: in vivo; conditions: 200 mg/kg transdermally vs 200 mg/kg diflunisal orally
Procedure: After the tested compounds are administered (the dosages for each test compounds are specified in FIG. 3, prodrug compounds are administered orally and transdermally respectively in different groups, while parent compounds are administered orally) to a group of mice (six mice every group), the tails of mice are exposed to heat and the prolongation time of pain threshold is determined. […] The prodrug compounds show similar analgesic activities when the same dosages are administered orally or transdermally. (FIG. 3)

[8] = tested on: rats (SLAC/GK, type 2 diabetes); experiment: Blood lipid in type 2 diabetes rats, oral with food; format: in vivo, rat; conditions: for Cholesterol (HDL), Baseline / Cholesterol (total), Baseline / Triglycerides, Baseline: equal to 20 mg/kg of NSAIAs; for Cholesterol (HDL), Average / Cholesterol (total), Average / Triglycerides, Average: end of the fifth week, equal to 20 mg/kg of NSAIAs every day
Excerpt: as §1

[9] = tested on: normal rats; experiment: Blood glucose in normal rats, transdermal; format: in vivo, rat; conditions: for Blood glucose, Average: normal rats (second Average line of Table 24), average second to fifth week, equal to 20 mg/kg of NSAIAs once per day; for Blood glucose, Baseline: normal rats (second Baseline line of Table 24), equal to 20 mg/kg of NSAIAs
Excerpt: as §2, with “25). […]” for “25).”

[10] = tested on: mice (SLAC:NOD-IDDM, type 1 diabetes); experiment: Blood glucose in type 1 diabetes mice, transdermal; format: in vivo, mouse; conditions: for Blood glucose, Average: average fourth to seventh week, no fasting, equal to 30 mg/kg of NSAIAs once per day for 7 weeks; for Blood glucose, Baseline: equal to 30 mg/kg of NSAIAs
Excerpt: The pro-drugs in this invention lower blood glucose levels in mouse models (SLAC:NOD-IDDM, type 1 diabetes, n=7). 50% acetone solution of diethylaminoethyl acetylsalicylate.acetylsalicylic acid salt (P-1, in acetone); 4-acetamidophenyl salicylyldimethylaminobutyrate.HCl (P-6), diethylaminoethyl 5-(2,4-difluorophenyl) acetylsalicylate.5-(2,4-difluorophenyl) acetylsalicylic acid salt (P-8), diethylaminoethyl salicylsalicylate.AcOH (P-9), diethylaminoethyl salicylate.AcOH (P-10), diethylaminoethyl 5-acetamido-acetylsalicylate (P-58), diethylaminoethyl acetylsalicylsalicylate. acetylsalicylsalicylic acid salt (P-59), diethylaminoethyl acetylsalicylsalicylate. acetylsalicylsalicylsalicylic acid salt (P-60) (equal to of 30 mg/kg of NSAIAs) were administered transdermally to the backs (about 1.5 cm^2) of mice (fur was shaved) once per day (at 8 am) for 7 weeks. The blood glucose levels were measured once every 3 days at 3 pm (no fasting) from the fourth week to the seventh week.

[11] = tested on: mice; experiment: Analgesic activity, acetic acid writhing; format: in vivo; conditions: 30 min before acetic acid
Procedure: The prodrug compounds are administered either transdermally or orally. The parent compounds are administered orally. The number of writhing that occurred when mice are administered the acetic acid solution are counted, and the rate of inhibition based on the control group which was not pretreated with any test compounds is calculated. […] The A group is the control group.

[12] = tested on: rats; experiment: Antipyretic activity, E. coli suspension as pyrogen; format: in vivo; conditions: in °C (unit assumed)
Procedure: Rats are administered with sterilized E. coli suspension as a pyrogen. Each group of rats are administered with a prodrug compounds or parent compounds at a dosage specified below. The prodrug compounds are administered either orally or transdermally. The parent compounds are administered orally.

[13] = tested on: normal rats; experiment: Blood glucose in normal rats, oral with food; format: in vivo, rat; conditions: for Blood glucose, Normal rats, Average: average second to fifth week, equal to 20 mg/kg of NSAIAs every day; for Blood glucose, Normal rats, Baseline: equal to 20 mg/kg of NSAIAs
[14] = tested on: cats with ocular hypertension; experiment: Intraocular pressure in cats with ocular hypertension; format: in vivo, cat; conditions: 30 mg/kg around the eye, 10 days
Procedure: The ability of diethylaminoethyl acetylsalicylate.HCl to reduce intraocular pressure (IOP) was evaluated in cats with ocular hypertension produced by previously done laser trabeculoplastry. IOP was determined with a pneumatonometer after light corneal anesthesia with dilute proparacaine. 14 Cats were divided into 2 groups. Baseline IOP was determined prior to treatment with the test compound aqueous solution. […] In group B, 30 mg/kg of diethylaminoethyl acetylsalicylate.HCl the area around eye (outside) of cat trice per day for 10 days.

[15] = tested on: Hypertension patients; experiment: Anti-hypertension effect of transdermal atenolol in patients; format: in vivo, human
Procedure: 20 Hypertension patents were divided to 2 groups. Group A is control group (n=10, 1 ml of water was administrated to the chest of patients once per day) and group B is atenolol treated group (n=10, 100 mg of atenolol HCl salt was administrated to the chest of patients once per day) (Table 32).

## CC(=O)O.CCN(CC)CCOC(=O)c1ccccc1OC(=O)c1ccccc1O [diethylaminoethyl salicylsalicylate.AcOH]
[1]
  LD50 of HPP: 2.0 g/kg
[2]
  In vitro penetration rate (apparent flux), prodrug compounds: 80 μg/cm^2/h
[3]
  Blood glucose, Diabetic rats, Average: 7.6 ± 1 mmol/L
  Blood glucose, Diabetic rats, Baseline: 16.5 ± 4 mmol/L
[4]
  Blood glucose, Average: 8.4 ± 1 mmol/L
  Blood glucose, Baseline: 16.5 ± 4 mmol/L
[5]
  Peak plasma concentration of parent compound after prodrug compound: 40 mg/L
  t, time to peak plasma level of parent compound after prodrug compound: 30 min
[6]
  Cholesterol (HDL), Baseline: 1.3 ± 0.1 mmol/L
  Cholesterol (total), Baseline: 7.7 ± 0.5 mmol/L
  Triglycerides, Baseline: 5.3 ± 0.5 mmol/L
  Cholesterol (HDL), Average: 1.4 ± 0.2 mmol/L
  Cholesterol (total), Average: 4.8 ± 0.4 mmol/L
  Triglycerides, Average: 2.4 ± 0.2 mmol/L
[7]
  analgesic activity, prolongation time of pain threshold of mice tails: stronger analgesic activity
[8]
  Cholesterol (HDL), Baseline: 1.5 ± 0.1 mmol/L
  Cholesterol (total), Baseline: 7.9 ± 0.5 mmol/L
  Triglycerides, Baseline: 5.8 ± 0.6 mmol/L
  Cholesterol (HDL), Average: 1.4 ± 0.2 mmol/L
  Cholesterol (total), Average: 5.6 ± 0.4 mmol/L
  Triglycerides, Average: 2.7 ± 0.2 mmol/L
[9]
  Blood glucose, Average: 6.7 ± 1 mmol/L
  Blood glucose, Baseline: 6.5 ± 1 mmol/L
[10]
  Blood glucose, Average: 9.4 ± 1 mmol/L
  Blood glucose, Baseline: 26.5 ± 4 mmol/L
[11]; 50 mg/kg transdermally
  % (rate of writhing inhibition): 59%
  No. of Writhing: 14.2
[11]; 100 mg/kg transdermally
  % (rate of writhing inhibition): 65%
  No. of Writhing: 12.0
[12]; 100 mg/kg transdermally
  body temperature, t = 0 min: 37.28 ± 0.06
  body temperature, t = 90 min: 36.75 ± 0.06
  body temperature, t = 180 min: 36.78 ± 0.08
  body temperature, t = 270 min: 36.80 ± 0.07
[12]; 150 mg/kg transdermally
  body temperature, t = 0 min: 37.26 ± 0.05
  body temperature, t = 90 min: 36.45 ± 0.05
  body temperature, t = 180 min: 36.40 ± 0.07
  body temperature, t = 270 min: 36.50 ± 0.05
[13]
  Blood glucose, Normal rats, Average: 6.6 ± 1 mmol/L
  Blood glucose, Normal rats, Baseline: 6.3 ± 1 mmol/L

## CCN(CC)CCOC(=O)c1ccccc1OC(C)=O.Cl [Diethylaminoethyl acetylsalicylate.HCl, diethylaminoethyl acetylsalicylate.HCl]
[14]
  anti-glaucoma activity: very strong anti-glaucoma activity

## CC(C)NCC(O)COc1ccc(CC(N)=O)cc1 (stereo not shown) [atenolol HCl salt, reference compound]
[15]; 100 mg in 1 ml of pure water per day transdermally
  blood pressure of hypertension patients: controlled

## CC(=O)O.CCN(CC)CCOC(=O)c1ccccc1O [diethylaminoethyl salicylate.AcOH]
[1]
  LD50 of HPP: 1.6 g/kg
[2]
  In vitro penetration rate (apparent flux), prodrug compounds: 60 μg/cm^2/h
[3]
  Blood glucose, Diabetic rats, Average: 7.8 ± 1 mmol/L
  Blood glucose, Diabetic rats, Baseline: 15.6 ± 3 mmol/L
[4]
  Blood glucose, Average: 8.2 ± 1 mmol/L
  Blood glucose, Baseline: 15.8 ± 3 mmol/L
[5]
  Peak plasma concentration of parent compound after prodrug compound: 40 mg/L
  t, time to peak plasma level of parent compound after prodrug compound: 30 min
[6]
  Cholesterol (HDL), Baseline: 1.6 ± 0.2 mmol/L
  Cholesterol (total), Baseline: 7.1 ± 0.5 mmol/L
  Triglycerides, Baseline: 5.6 ± 0.6 mmol/L
  Cholesterol (HDL), Average: 1.5 ± 0.1 mmol/L
  Cholesterol (total), Average: 4.9 ± 0.4 mmol/L
  Triglycerides, Average: 2.5 ± 0.2 mmol/L
[7]
  analgesic activity, prolongation time of pain threshold of mice tails: stronger analgesic activity
[8]
  Cholesterol (HDL), Baseline: 1.6 ± 0.2 mmol/L
  Cholesterol (total), Baseline: 7.6 ± 0.5 mmol/L
  Triglycerides, Baseline: 5.7 ± 0.6 mmol/L
  Cholesterol (HDL), Average: 1.7 ± 0.1 mmol/L
  Cholesterol (total), Average: 5.2 ± 0.5 mmol/L
  Triglycerides, Average: 2.6 ± 0.2 mmol/L
[9]
  Blood glucose, Average: 6.9 ± 1 mmol/L
  Blood glucose, Baseline: 6.8 ± 1 mmol/L
[10]
  Blood glucose, Average: 8.2 ± 1 mmol/L
  Blood glucose, Baseline: 25.8 ± 3 mmol/L
[11]; 50 mg/kg transdermally
  % (rate of writhing inhibition): 60%
  No. of Writhing: 14.0
[11]; 100 mg/kg transdermally
  % (rate of writhing inhibition): 66%
  No. of Writhing: 11.9
[12]; 100 mg/kg transdermally
  body temperature, t = 0 min: 37.28 ± 0.06
  body temperature, t = 90 min: 36.85 ± 0.06
  body temperature, t = 180 min: 36.88 ± 0.08
  body temperature, t = 270 min: 36.86 ± 0.07
[12]; 150 mg/kg transdermally
  body temperature, t = 0 min: 37.26 ± 0.05
  body temperature, t = 90 min: 36.55 ± 0.05
  body temperature, t = 180 min: 36.60 ± 0.07
  body temperature, t = 270 min: 36.65 ± 0.05
[13]
  Blood glucose, Normal rats, Average: 6.9 ± 1 mmol/L
  Blood glucose, Normal rats, Baseline: 6.7 ± 1 mmol/L

## CC(C)NCC(O)COc1ccc(CC(N)=O)cc1 (stereo not shown) [atenolol]
[15]; 2 weeks after treatment, value after the slash, 100 mg atenolol HCl salt to the chest once per day
  Blood pressure (2 weeks after treatment), second value: 113 ± 23 mmHg
[15]; before treatment, value after the slash, 100 mg atenolol HCl salt to the chest once per day
  Blood Pressure (before treatment), second value: 110 ± 20 mmHg
